# Laboratory results as given in article PMC9701690, “Teloxantron inhibits the processivity of telomerase with preferential DNA damage on telomeres” (Cell Death & Disease, 2022).
# Molecular target: T1, hTERT (catalytic subunit of human telomerase) (Homo sapiens, UniProt O14746)
# T1 construct: gene TERT; with telomerase ribonucleoprotein (TERC RNA and accessory proteins)
# Assay: test-tube TRAP assay
# Assay type: biochemical
# T1 sequence (O14746 whole entry): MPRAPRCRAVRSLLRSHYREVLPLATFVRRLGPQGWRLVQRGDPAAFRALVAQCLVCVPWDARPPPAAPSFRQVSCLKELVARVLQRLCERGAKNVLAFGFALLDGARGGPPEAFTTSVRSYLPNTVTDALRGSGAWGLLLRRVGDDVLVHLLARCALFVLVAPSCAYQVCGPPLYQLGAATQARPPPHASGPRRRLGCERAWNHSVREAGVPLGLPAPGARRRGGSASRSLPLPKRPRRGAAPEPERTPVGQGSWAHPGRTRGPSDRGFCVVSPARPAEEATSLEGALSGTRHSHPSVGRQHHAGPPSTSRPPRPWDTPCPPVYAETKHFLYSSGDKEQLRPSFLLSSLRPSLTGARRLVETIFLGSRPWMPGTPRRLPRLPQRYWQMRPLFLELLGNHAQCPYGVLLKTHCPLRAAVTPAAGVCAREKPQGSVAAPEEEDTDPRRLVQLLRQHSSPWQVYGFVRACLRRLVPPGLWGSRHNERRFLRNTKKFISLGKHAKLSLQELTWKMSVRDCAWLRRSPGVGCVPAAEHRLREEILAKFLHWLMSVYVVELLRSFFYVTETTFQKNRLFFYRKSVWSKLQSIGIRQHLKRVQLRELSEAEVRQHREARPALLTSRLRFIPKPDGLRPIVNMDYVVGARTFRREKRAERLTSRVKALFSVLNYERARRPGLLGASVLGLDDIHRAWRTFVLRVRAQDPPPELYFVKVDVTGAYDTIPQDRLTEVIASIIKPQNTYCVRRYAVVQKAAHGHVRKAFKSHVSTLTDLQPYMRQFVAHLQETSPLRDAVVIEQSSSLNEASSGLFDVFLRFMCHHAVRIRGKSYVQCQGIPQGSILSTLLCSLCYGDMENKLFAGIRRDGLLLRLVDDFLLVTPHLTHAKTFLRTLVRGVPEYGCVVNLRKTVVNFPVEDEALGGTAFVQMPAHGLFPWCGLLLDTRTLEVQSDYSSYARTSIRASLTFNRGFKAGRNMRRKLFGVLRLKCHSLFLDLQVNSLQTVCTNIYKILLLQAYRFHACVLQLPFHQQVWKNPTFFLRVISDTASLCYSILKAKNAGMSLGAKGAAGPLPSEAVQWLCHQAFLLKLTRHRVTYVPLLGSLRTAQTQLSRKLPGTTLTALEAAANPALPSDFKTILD
compound,measurement,value
C/C(=C\C(=O)Nc1ccccc1C(=O)O)c1ccc2ccccc2c1 [BIBR1532],IC50,64.1 ± 2.53 µM
